Laboratory results taken from patent US10670605B2, “Cysteine reactive probes and uses thereof” (The Scripps Research Institute, priority 2015, dated 2020).
Entries after “also recorded” stand apart in the source; their conditions may differ. Each block holds one compound with its values, some of them ahead of it.

How the values were obtained:
[1] = biological target: O114933_C98 (Homo sapiens, UniProt O14933); assay: Competitive isoTOP-ABPP, cell lysates; assay type: binding; conditions: 500 μm
O114933_C98, sequence (O14933 whole entry, the tested form may be a part): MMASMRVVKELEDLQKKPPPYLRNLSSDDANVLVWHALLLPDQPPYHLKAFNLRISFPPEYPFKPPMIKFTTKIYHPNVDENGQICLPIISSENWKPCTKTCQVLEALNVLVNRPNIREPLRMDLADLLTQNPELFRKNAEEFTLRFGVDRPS

[2] = biological target: T1, cysteines in MDA-MB-231 and Ramos cells (Homo sapiens, UniProt Q9UKX7); assay: Competitive isoTOP-ABPP in situ (fragment-treated cells); assay type: cell-based
T1 sequence (Q9UKX7 1-468): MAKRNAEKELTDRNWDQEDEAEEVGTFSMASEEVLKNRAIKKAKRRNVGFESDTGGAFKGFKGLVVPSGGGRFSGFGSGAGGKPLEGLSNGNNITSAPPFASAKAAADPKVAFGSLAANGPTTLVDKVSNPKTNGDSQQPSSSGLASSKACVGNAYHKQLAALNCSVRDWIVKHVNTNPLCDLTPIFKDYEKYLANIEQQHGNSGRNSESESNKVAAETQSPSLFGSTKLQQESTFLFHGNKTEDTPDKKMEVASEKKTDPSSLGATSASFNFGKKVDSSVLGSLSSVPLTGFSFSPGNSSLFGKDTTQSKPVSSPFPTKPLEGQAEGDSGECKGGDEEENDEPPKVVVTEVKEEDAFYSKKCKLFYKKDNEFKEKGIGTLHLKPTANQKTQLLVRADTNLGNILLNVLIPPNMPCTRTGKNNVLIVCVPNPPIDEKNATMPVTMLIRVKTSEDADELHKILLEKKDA

[3] = biological target: cysteines in MDA-MB-231 and Ramos cells (Homo sapiens, UniProt Q5UIP0); assay: as above; assay type: cell-based
[4] = biological target: cysteines in MDA-MB-231 and Ramos cells (Homo sapiens, UniProt O75150); assay: as above; assay type: cell-based; conditions: 200 μM, insitu
cysteines in MDA-MB-231 and Ramos cells (Homo sapiens, UniProt O75150), sequence (O75150 whole entry): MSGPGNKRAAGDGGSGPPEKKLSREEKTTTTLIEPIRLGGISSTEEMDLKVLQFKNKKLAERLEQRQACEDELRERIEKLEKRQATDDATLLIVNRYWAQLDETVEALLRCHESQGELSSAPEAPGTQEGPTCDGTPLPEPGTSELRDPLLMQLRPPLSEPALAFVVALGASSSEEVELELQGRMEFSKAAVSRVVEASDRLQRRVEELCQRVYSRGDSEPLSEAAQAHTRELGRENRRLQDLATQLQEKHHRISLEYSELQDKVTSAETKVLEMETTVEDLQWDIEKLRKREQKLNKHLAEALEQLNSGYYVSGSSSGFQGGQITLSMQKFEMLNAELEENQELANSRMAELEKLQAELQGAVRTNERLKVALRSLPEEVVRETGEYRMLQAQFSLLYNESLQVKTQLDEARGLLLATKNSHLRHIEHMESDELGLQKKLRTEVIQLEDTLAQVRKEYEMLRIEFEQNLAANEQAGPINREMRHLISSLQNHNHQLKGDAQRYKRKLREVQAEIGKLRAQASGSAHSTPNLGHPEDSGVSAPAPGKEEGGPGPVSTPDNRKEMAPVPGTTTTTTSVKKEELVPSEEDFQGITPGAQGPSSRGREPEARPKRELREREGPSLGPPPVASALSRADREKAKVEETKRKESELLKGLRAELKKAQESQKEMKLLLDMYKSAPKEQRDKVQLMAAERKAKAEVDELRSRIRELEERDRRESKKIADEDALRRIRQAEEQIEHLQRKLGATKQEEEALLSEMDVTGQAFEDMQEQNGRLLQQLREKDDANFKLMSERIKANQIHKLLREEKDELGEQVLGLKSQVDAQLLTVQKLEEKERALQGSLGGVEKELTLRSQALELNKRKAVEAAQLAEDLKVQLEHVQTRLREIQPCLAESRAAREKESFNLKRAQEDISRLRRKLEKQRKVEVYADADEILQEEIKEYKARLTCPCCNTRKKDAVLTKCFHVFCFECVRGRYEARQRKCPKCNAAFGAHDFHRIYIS

[5] = test system: cysteines in MDA-MB-231 and Ramos cells; assay: as above; assay type: cell-based, human
[6] = biological target: cysteines in MDA-MB-231 and Ramos cells (Homo sapiens, UniProt O00541); assay: as above; assay type: cell-based
cysteines in MDA-MB-231 and Ramos cells (Homo sapiens, UniProt O00541), sequence (O00541 whole entry, looked up): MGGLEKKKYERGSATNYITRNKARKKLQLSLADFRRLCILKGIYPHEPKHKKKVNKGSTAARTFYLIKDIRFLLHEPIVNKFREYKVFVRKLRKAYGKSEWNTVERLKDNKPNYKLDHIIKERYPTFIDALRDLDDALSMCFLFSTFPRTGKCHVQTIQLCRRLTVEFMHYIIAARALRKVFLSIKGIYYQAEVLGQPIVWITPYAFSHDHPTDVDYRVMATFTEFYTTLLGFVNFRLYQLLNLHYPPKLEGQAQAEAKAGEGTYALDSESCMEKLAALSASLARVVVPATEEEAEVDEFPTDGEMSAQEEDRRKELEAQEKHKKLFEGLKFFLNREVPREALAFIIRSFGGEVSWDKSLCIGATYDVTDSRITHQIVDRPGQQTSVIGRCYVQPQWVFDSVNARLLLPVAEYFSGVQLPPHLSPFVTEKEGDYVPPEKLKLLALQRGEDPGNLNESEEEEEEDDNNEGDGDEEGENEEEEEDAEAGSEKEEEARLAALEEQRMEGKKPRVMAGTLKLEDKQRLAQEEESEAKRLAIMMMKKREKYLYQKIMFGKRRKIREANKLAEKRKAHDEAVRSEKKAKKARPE

[7] = biological target: T2, cysteines in MDA-MB-231 and Ramos cells (Homo sapiens, UniProt Q9UL40); assay: as above; assay type: cell-based; conditions: 200 μM, insitu
T2 sequence (Q9UL40 1-294): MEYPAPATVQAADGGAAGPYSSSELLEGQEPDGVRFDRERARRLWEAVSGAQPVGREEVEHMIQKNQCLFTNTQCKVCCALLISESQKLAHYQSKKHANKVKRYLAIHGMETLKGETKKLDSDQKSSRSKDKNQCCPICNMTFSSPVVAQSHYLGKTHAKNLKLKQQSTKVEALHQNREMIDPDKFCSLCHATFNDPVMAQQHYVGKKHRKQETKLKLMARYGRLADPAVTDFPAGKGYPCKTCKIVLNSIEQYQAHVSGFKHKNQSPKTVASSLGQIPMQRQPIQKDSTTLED

[8] = biological target: cysteines in MDA-MB-231 and Ramos cells (Homo sapiens, UniProt Q9Y5T5); assay: as above; assay type: cell-based; conditions: 200 μM, insitu
cysteines in MDA-MB-231 and Ramos cells (Homo sapiens, UniProt Q9Y5T5), sequence (Q9Y5T5 whole entry): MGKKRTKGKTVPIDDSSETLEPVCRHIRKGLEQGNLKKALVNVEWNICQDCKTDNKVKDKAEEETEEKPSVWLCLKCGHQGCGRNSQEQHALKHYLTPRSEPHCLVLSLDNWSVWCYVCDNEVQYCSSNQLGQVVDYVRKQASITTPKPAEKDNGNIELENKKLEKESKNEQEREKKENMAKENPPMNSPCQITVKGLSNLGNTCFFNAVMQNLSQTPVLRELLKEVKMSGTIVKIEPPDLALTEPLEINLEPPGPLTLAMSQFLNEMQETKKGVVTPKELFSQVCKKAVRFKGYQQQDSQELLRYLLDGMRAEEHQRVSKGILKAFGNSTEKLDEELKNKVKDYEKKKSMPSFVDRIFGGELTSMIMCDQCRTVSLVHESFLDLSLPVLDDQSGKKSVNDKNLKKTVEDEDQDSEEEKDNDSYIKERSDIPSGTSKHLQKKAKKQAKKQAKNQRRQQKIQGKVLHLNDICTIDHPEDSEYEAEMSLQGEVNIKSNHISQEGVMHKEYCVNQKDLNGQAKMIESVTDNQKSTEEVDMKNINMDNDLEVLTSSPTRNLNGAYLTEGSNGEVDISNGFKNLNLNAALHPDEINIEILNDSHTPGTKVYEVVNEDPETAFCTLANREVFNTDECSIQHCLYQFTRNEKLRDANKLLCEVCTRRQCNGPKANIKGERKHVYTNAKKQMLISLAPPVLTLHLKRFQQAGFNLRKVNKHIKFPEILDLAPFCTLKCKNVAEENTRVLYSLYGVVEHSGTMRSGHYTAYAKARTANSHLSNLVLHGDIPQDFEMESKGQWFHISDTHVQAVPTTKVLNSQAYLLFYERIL

[9] = biological target: T3, cysteines in MDA-MB-231 and Ramos cells (Homo sapiens, UniProt O95833); assay: as above; assay type: cell-based; conditions: 200 μM, insitu, 231
T3 sequence (O95833 1-236): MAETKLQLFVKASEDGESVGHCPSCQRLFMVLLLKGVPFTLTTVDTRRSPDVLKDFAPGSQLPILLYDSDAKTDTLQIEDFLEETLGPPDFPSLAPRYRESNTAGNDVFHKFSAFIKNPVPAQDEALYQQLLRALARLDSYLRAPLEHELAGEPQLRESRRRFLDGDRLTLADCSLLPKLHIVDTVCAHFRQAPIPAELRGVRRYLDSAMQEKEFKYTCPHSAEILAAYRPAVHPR

[10] = biological target: T4, cysteines in MDA-MB-231 and Ramos cells (Homo sapiens, UniProt Q8IZ73); assay: as above; assay type: cell-based; conditions: 200 μM, insitu
T4 sequence (Q8IZ73 1-545): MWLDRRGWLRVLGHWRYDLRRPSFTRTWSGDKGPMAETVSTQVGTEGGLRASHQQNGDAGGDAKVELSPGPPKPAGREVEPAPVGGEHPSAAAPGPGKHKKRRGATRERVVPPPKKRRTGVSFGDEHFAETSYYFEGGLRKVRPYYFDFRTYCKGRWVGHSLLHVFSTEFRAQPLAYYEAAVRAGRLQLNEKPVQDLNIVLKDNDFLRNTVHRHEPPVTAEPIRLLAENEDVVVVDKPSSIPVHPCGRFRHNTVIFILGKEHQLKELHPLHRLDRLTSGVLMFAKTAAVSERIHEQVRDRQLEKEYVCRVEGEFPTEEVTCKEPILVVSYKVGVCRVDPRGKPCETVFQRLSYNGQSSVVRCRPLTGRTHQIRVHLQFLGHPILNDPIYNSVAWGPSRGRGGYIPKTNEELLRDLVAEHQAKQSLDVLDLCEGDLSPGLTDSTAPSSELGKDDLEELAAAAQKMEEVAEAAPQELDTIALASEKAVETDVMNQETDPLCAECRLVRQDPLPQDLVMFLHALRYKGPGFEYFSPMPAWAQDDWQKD

[11] = biological target: T5, cysteines in MDA-MB-231 and Ramos cells (Homo sapiens, UniProt Q9BTE3); assay: as above; assay type: cell-based; conditions: 200 μM, insitu
T5 sequence (Q9BTE3 1-642): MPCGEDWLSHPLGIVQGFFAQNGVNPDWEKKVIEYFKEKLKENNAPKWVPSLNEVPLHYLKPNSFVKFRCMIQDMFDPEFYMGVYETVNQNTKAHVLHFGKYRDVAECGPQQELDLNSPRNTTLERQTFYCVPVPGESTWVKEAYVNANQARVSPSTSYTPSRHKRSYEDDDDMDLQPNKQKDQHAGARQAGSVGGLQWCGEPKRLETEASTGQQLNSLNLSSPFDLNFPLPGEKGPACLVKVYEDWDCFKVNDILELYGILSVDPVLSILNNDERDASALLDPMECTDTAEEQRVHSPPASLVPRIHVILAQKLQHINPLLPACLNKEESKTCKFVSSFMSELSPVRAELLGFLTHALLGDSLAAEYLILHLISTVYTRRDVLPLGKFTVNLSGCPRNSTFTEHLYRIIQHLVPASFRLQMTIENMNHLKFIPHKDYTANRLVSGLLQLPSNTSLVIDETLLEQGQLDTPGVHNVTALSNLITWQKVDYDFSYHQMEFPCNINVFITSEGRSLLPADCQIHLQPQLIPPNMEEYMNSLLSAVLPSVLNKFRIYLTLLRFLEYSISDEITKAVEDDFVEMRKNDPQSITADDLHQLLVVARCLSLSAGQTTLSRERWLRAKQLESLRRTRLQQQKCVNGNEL

[12] = biological target: O00541_C272 (Homo sapiens, UniProt O00541); assay: Competitive isoTOP-ABPP, cell lysates; assay type: binding; conditions: 500 μm
O00541_C272, sequence (O00541 whole entry, looked up): as the sequence (O00541 whole entry, looked up) above

Structure (SMILES): COc1ccc2c(c1)CCCN2C(=O)CCl [compound 2]
isoTOP-ABPP reactivity Q9UKX7_C151 NUP50 ([2]; 200 μM, insitu, 231): 6.1

Structure (SMILES): COc1ccc(C2CC(c3cccs3)=NN2C(=O)CCl)cc1 (stereo not shown) [compound 4]
isoTOP-ABPP reactivity Q5UIP0_C2298 RIF1 ([3]; 100 μM in situ 231): 20.0

Structure (SMILES): O=C(CCl)N1CCN(S(=O)(=O)c2ccccc2F)CC1 [compound 10]
isoTOP-ABPP ratio, cysteine O75150_C890 ([4]; ramos): 4.2
isoTOP-ABPP ratio, cysteine Q5UIP0_C2298 ([3]; 200 μM, insitu, 231): 20.0

Structure (SMILES): Cn1cc(S(=O)(=O)N2CCOCC2)cc1C(=O)NC(=O)CCl [compound 11]
isoTOP-ABPP ratio, cysteine E2QRD5_C183 ([5]; 100 μM in situ 231): 0.9
proteomic reactivity in situ (in words) ([5]; in situ, 2 h, versus in vitro): notably devoid of activity in situ; also recorded: notably lower reactivity in situ versus in vitro
isoTOP-ABPP ratio, cysteine Q9UKX7_C151 ([2]; 100 μM in situ 231): 1.0
isoTOP-ABPP ratio, cysteine Q5UIP0_C2298 ([3]; 100 μM in situ 231): 1.3
isoTOP-ABPP ratio, cysteine O00541_C272 ([6]; 100 μM in situ 231): 1.0

Structure (SMILES): O=C(CCl)NC(=O)NC12CC3CC(CC(C3)C1)C2 [compound 12]
isoTOP-ABPP ratio, cysteine Q9UKX7_C151 ([2]; 200 μM, insitu, 231): 6.7
isoTOP-ABPP ratio, cysteine O75150_C890 [4]; 231: 1.1
isoTOP-ABPP ratio, cysteine Q9UL40_C68 [7]; 231: 20.0

Structure (SMILES): O=C(CCl)NCCc1c[nH]c2ccccc12 [compound 13]
isoTOP-ABPP ratio, cysteine Q9Y5T5_C205 ([8]; ramos): 20.0
isoTOP-ABPP ratio, cysteine Q9UL40_C68 ([7]; ramos): 20.0
isoTOP-ABPP ratio, cysteine O00541_C272 ([6]; 200 μM, insitu, 231): 1.4

Structure (SMILES): O=C(CCl)NC12CC3CC(CC(C3)C1)C2 [compound 21]
isoTOP-ABPP ratio, cysteine E2QRD5_C183 ([5]; 200 μM, insitu, 231): 0.8
isoTOP-ABPP ratio, cysteine O95833_C22 [9]: 1.0
isoTOP-ABPP ratio, cysteine Q8IZ73_C246 [10]; 231: 1.8
isoTOP-ABPP ratio, cysteine Q9Y5T5_C205 [8]; 231: 0.9
isoTOP-ABPP ratio, cysteine Q5UIP0_C2298 ([3]; 200 μM, insitu, 231): 0.9

Structure (SMILES): CC(C)CCOCCNC(=O)CCl [compound 27]
isoTOP-ABPP ratio O75150_C890 [4]; 231: 1.2
isoTOP-ABPP ratio, Q9Y5T5_C205 [8]; 231: 1.2
isoTOP-ABPP ratio Q9UL40_C68 [7]; 231: 1.9

Structure (SMILES): COc1ccccc1OCCNC(=O)CCl [compound 28]
isoTOP-ABPP ratio Q9BTE3_C325 [11]; 231: 1.0

Further lines, with some results ahead:

isoTOP-ABPP reactivity profile ratio, O114933_C98 ([1]; in-vitro_ramos_231): 2.0
Structure (SMILES): O=C(CCl)NC1C(O)OC(CO)C(O)C1O (mixture of isomers) [compound 44]

isoTOP-ABPP ratio Q9UL40_C68 ([7]; ramos): 2.4
Structure (SMILES): O=C(CCl)N1CCN(CC(=O)N2CCOCC2)CC1 [compound 29]

isoTOP-ABPP ratio O95833_C22 [9]: 0.5
isoTOP-ABPP ratio O75150_C890 [4]; 231: 0.7
isoTOP-ABPP ratio Q8IZ73_C246 [10]; 231: 0.4
isoTOP-ABPP ratio Q8IZ73_C246 ([10]; ramos): 1.0
isoTOP-ABPP ratio Q9BTE3_C325 [11]; 231: 1.9
isoTOP-ABPP ratio Q9BTE3_C325 ([11]; ramos): 3.5
Structure (SMILES): C=CC(=O)N(Cc1cccnc1)c1cc(C(F)(F)F)cc(C(F)(F)F)c1 [compound 31]
isoTOP-ABPP ratio E2QRD5_C183 ([5]; 200 μM, insitu, 231): 0.8

isoTOP-ABPP reactivity ratio, O00541_C272 ([12]; in-vitro_ramos): 1.2
isoTOP-ABPP reactivity ratio, O00541_C272 ([12]; in-vitro_ramos_231): 0.8
Structure (SMILES): O=C(CCl)Nc1ccccc1C1CCCCCC1 [compound 35]

isoTOP-ABPP reactivity ratio, O00541_C272 ([12]; in-vitro_ramos): 1.0
Structure (SMILES): C=CC(=O)N1CCC(c2noc3ccc(F)cc23)CC1 [compound 37]

isoTOP-ABPP ratio Q8IZ73_C246 [10]; 231: 1.7
isoTOP-ABPP ratio, Q9Y5T5_C205 [8]; 231: 1.5
isoTOP-ABPP ratio Q9BTE3_C325 [11]; 231: 2.2
isoTOP-ABPP reactivity ratio, O00541_C272 ([12]; in-vitro_ramos_231): 1.0
Structure (SMILES): C=CC(=O)Nc1cc(F)c(N2CCN(C(=O)OC(C)(C)C)CC2)c(F)c1 [compound 38]

isoTOP-ABPP ratio Q9UKX7_C151 ([2]; 200 μM, insitu, 231): 0.8
isoTOP-ABPP ratio O75150_C890 [4]; 231: 1.3
isoTOP-ABPP ratio, O00541_C272 ([6]; 200 μM, insitu, 231): 0.9
isoTOP-ABPP ratio Q9BTE3_C325 [11]; 231: 0.6
Structure (SMILES): Cc1ccc(C=C(C#N)C(=O)NCCN2CCOCC2)cc1 [compound 41]
isoTOP-ABPP ratio E2QRD5_C183 ([5]; 200 μM, insitu, 231): 0.5

isoTOP-ABPP reactivity profile ratio, O114933_C98 ([1]; in-vitro_ramos): 1.0
Structure (SMILES): N#CC(=Cc1ccc(-c2ccccc2Cl)o1)C(N)=O [compound 42]

isoTOP-ABPP ratio O95833_C22 [9]: 13.8
isoTOP-ABPP ratio Q9BTE3_C325 [11]; 231: 20.0
Structure (SMILES): CC1CCc2ccccc2N1C(=O)CCl (stereo not shown) [compound 45]

isoTOP-ABPP reactivity profile ratio, O114933_C98 ([1]; in-vitro_ramos_231): 1.5
Structure (SMILES): O=C(CCl)N1CCc2cc(Br)ccc21 [compound 50]

isoTOP-ABPP reactivity profile ratio, O114933_C98 ([1]; in-vitro_ramos): 1.4
isoTOP-ABPP reactivity profile ratio, O114933_C98 ([1]; in-vitro_ramos_231): 1.4
Structure (SMILES): O=C(CCl)Nc1ccc(-c2ccccc2)cc1 [compound 52]

isoTOP-ABPP reactivity profile ratio, O114933_C98 ([1]; in-vitro_ramos): 1.0
Structure (SMILES): C=CC(=O)N1CCC(Cc2ccccc2)CC1 [compound 53]
